According to patent publication US9944645B2, “Imidazotriazines and imidazopyrimidines as kinase inhibitors” (Incyte Holdings Corporation, priority 2006, dated 2018):

Molecular target: c-Met kinase (h-Met; histidine-tagged c-Met catalytic domain fusion protein) (Homo sapiens (Human), UniProt P08581)
Test: In Vitro c-Met Kinase Enzyme Assays
Format: biochemical
Settings: phosphorylation of poly Glu-Tyr, 5 μM ATP, 25 minutes at 30° C.
How it was run: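 His-tagged c-Met catalytic domain reacted 25 min at 30° C, within the linear initial-rate range. Phosphotyrosine detected by ELISA with peroxidase-labeled anti-phospho-tyrosine antibody and TMB, OD read at 450 nm (540 nm correction); IC50 from curve fit.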

c-Met kinase (h-Met; histidine-tagged c-Met catalytic domain fusion protein), sequence (P08581 1078-1345): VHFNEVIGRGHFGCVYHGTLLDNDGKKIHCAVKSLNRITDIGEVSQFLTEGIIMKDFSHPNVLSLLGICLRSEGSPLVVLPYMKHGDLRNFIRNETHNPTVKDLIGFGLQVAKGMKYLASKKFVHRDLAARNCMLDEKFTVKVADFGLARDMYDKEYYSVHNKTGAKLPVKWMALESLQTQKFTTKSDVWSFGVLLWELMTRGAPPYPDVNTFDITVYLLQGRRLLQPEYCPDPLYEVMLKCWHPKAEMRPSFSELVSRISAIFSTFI

IC50 [nM]	SMILES
< 500	COC[C@@H](NC(=O)c1ccc(-c2cnc3ncc(C4(c5ccc6ncccc6c5)CC4)n3n2)cc1)C(C)C [Example 117]
< 500	COCC1(NC(=O)c2ccc(-c3cnc4ncc(C5(c6ccc7ncccc7c6)CC5)n4n3)cc2)CCOCC1 [Example 118]
< 500	O=C(Nc1nccs1)c1ccc(-c2cnc3ncc(C4(c5ccc6ncccc6c5)CC4)n3n2)cc1 [Example 119, 4-[7-(1-Quinolin-6-ylcyclopropyl)imidazo[1,2-b][1,2,4]triazin-2-yl]-N-1,3-thiazol-2-ylbenzamide]
< 500	C[C@H](COC(=O)N(C)C)NC(=O)c1ccc(-c2cnc3ncc(C4(c5ccc6ncccc6c5)CC4)n3n2)cc1 [Example 121]
< 500	CC(c1ccc2ncccc2c1)c1cnc2ncc(-c3ccc(C(=O)N[C@@H](C(=O)N(C)C)C(C)C)cc3)nn12 (stereo partly drawn) [Example 122, N-{(1R)-1-[(Dimethylamino)carbonyl]-2-methylpropyl}-4-[7-(1-quinolin-6-ylethyl)imidazo[1,2-b][1,2,4]triazin-2-yl]benzamide]
< 500	O=C(NC1CC1)c1ccc(-c2cnc3ncc(Cc4ccc5ncccc5c4)n3n2)cc1F [Example 123, N-Cyclopropyl-2-fluoro-4-[7-(quinolin-6-ylmethyl)imidazo[1,2-b][1,2,4]triazin-2-yl]benzamide]
< 500	COCC1(NC(=O)c2ccc(-c3cnc4ncc(Cc5ccc6ncccc6c5)n4n3)cc2F)CC1 [Example 124, 2-Fluoro-N-[1-(methoxymethyl)cyclopropyl]-4-[7-(quinolin-6-ylmethyl)imidazo[1,2-b][1,2,4]triazin-2-yl]benzamide]
< 500	O=C(NC1CCOCC1)c1ccc(-c2cnc3ncc(Cc4ccc5ncccc5c4)n3n2)cc1F [Example 125, 2-Fluoro-4-[7-(quinolin-6-ylmethyl)imidazo[1,2-b][1,2,4]triazin-2-yl]-N-(tetrahydro-2H-pyran-4-yl)benzamide]
< 500	O=C(c1ccc(-c2cnc3ncc(Cc4ccc5ncccc5c4)n3n2)cc1F)N1CC[C@@H](O)C1 [Example 126, (3R)-1-{2-Fluoro-4-[7-(quinolin-6-ylmethyl)imidazo[1,2-b][1,2,4]triazin-2-yl]benzoyl}pyrrolidin-3-ol]
< 500	NC(=O)c1ccc(-c2cnc3ncc(Cc4ccc5ncccc5c4)n3n2)cc1F [Example 127, 2-Fluoro-4-[7-(quinolin-6-ylmethyl)imidazo[1,2-b][1,2,4]triazin-2-yl]benzamide]
< 500	O=C(N[C@H]1CC[C@H](O)CC1)c1ccc(-c2cnc3ncc(Cc4ccc5ncccc5c4)n3n2)cc1F [Example 128, 2-Fluoro-N-(trans-4-hydroxycyclohexyl)-4-[7-(quinolin-6-ylmethyl)imidazo[1,2-b][1,2,4]triazin-2-yl]benzamide]
< 500	Fc1cc(-c2cnc3ncc(Cc4ccc5ncccc5c4)n3n2)ccc1-n1ccnc1 [Example 129, 6-{2-[3-Fluoro-4-(1H-imidazol-1-yl)phenyl]imidazo[1,2-b][1,2,4]triazin-7-ylmethyl}quinoline]
< 500	O=C1OCCN1c1ccc(-c2cnc3ncc(Cc4ccc5ncccc5c4)n3n2)cc1F [Example 130, 3-{2-Fluoro-4-[7-(quinolin-6-ylmethyl)imidazo[1,2-b][1,2,4]triazin-2-yl]phenyl}-1,3-oxazolidin-2-one]
< 500	CNC(=O)[C@@H](NC(=O)c1ccc(-c2cnc3ncc(Cc4ccc5ncccc5c4)n3n2)cc1F)C(C)(C)C [Example 131, N-(1S)-2,2-Dimethyl-1-[(methylamino)carbonyl]propyl-2-fluoro-4-[7-(quinolin-6-ylmethyl)imidazo[1,2-b][1,2,4]triazin-2-yl]benzamide]
< 500	CN(C)C(=O)[C@@H](NC(=O)c1ccc(-c2cnc3ncc(Cc4ccc5ncccc5c4)n3n2)cc1F)C(C)(C)C [Example 132, N-(1S)-1-[(Dimethylamino)carbonyl]-2,2-dimethylpropyl-2-fluoro-4-[7-(quinolin-6-ylmethyl)imidazo[1,2-b][1,2,4]triazin-2-yl]benzamide]
< 500	CC(C)(C)[C@H](NC(=O)c1ccc(-c2cnc3ncc(Cc4ccc5ncccc5c4)n3n2)cc1F)C(=O)N1CCC1 [Example 133, N-[(1S)-1-(Azetidin-1-ylcarbonyl)-2,2-dimethylpropyl]-2-fluoro-4-[7-(quinolin-6-ylmethyl)imidazo[1,2-b][1,2,4]triazin-2-yl]benzamide]
< 500	CC(C)C[C@H](NC(=O)c1ccc(-c2cnc3ncc(Cc4ccc5ncccc5c4)n3n2)cc1F)C(=O)N(C)C [Example 134, N-{(1S)-1-[(Dimethylamino)carbonyl]-3-methylbutyl}-2-fluoro-4-[7-(quinolin-6-ylmethyl)imidazo[1,2-b][1,2,4]triazin-2-yl]benzamide]
< 500	CNC(=O)[C@@H](CC(C)C)NC(=O)c1ccc(-c2cnc3ncc(Cc4ccc5ncccc5c4)n3n2)cc1F [Example 135, 2-Fluoro-N-{(1R)-3-methyl-1-[(methylamino)carbonyl]butyl}-4-[7-(quinolin-6-ylmethyl)imidazo[1,2-b][1,2,4]triazin-2-yl]benzamide]
< 500	CC(C)C[C@@H](NC(=O)c1ccc(-c2cnc3ncc(Cc4ccc5ncccc5c4)n3n2)cc1F)C(=O)N(C)C [Example 136, N-{(1R)-1-[(Dimethylamino)carbonyl]-3-methylbutyl}-2-fluoro-4-[7-(quinolin-6-ylmethyl)imidazo[1,2-b][1,2,4]triazin-2-yl]benzamide]
< 500	CC(C)C[C@@H](NC(=O)c1ccc(-c2cnc3ncc(Cc4ccc5ncccc5c4)n3n2)cc1F)C(=O)N1CCC1 [Example 137, N-[(1R)-1-(Azetidin-1-ylcarbonyl)-3-methylbutyl]-2-fluoro-4-[7-(quinolin-6-ylmethyl)imidazo[1,2-b][1,2,4]triazin-2-yl]benzamide]
< 500	N#CCCn1cc(-c2cnc3ncc(Cc4ccc5ncccc5c4)n3n2)cn1 [Example 138, 3-{4-[7-(Quinolin-6-ylmethyl)imidazo[1,2-b][1,2,4]triazin-2-yl]-1H-pyrazol-1-yl}propanenitrile]
< 500	N#CCn1cc(-c2cnc3ncc(Cc4ccc5ncccc5c4)n3n2)cn1 [Example 139, 4-[7-(Quinolin-6-ylmethyl)imidazo[1,2-b][1,2,4]triazin-2-yl]-1H-pyrazol-1-ylacetonitrile]
< 500	NC(=O)Cn1cc(-c2cnc3ncc(Cc4ccc5ncccc5c4)n3n2)cn1 [Example 140, 2-{4-[7-(Quinolin-6-ylmethyl)imidazo[1,2-b][1,2,4]triazin-2-yl]-1H-pyrazol-1-yl}acetamide]
< 500	COC(=O)N1CCC(n2cc(-c3cnc4ncc(Cc5ccc6ncccc6c5)n4n3)cn2)CC1 [Example 141, Methyl 4-{4-[7-(quinolin-6-ylmethyl)imidazo[1,2-b][1,2,4]triazin-2-yl]-1H-pyrazol-1-yl}piperidine-1-carboxylate]
< 500	O=C(N[C@H]1CCC[C@@H]1O)c1ccc(-c2cnc3ncc(Cc4ccc5ncccc5c4)n3n2)cc1F [Example 142, 2-Fluoro-N-[(1S,2S)-2-hydroxycyclopentyl]-4-[7-(quinolin-6-ylmethyl)imidazo[1,2-b][1,2,4]triazin-2-yl]benzamide]
< 500	O=C(NCCO)c1ccc(-c2cnc3ncc(Cc4ccc5ncccc5c4)n3n2)cc1F [Example 143, 2-Fluoro-N-(2-hydroxyethyl)-4-[7-(quinolin-6-ylmethyl)imidazo[1,2-b][1,2,4]triazin-2-yl]benzamide]
